Data reported in patent US20240116946A1 (Gilead Sciences, Inc., priority 2022, published 2024).

Tests used:
[1] = system: SARS-CoV-2-NLuc; test: microbe, parasite or virus in culture; type: cell-based, SARS Coronavirus 2; settings: Severe acute respiratory syndrome coronavirus, 48 h, read-out: MPro EC50
[2] = biological target: recombinant SARS-CoV-2 Main protease (Mpro) (Severe acute respiratory syndrome coronavirus 2 (2019-nCoV) (SARS-CoV-2), UniProt P0DTD1); test: Cov Mpro Biochemical IC50 Assay; settings: recombinant SARS-CoV-2 Mpro, fluorogenic peptide substrate; read-out: MPro IC50

Compound: CCCOc1ccc(Cl)c(-c2ccc3c(=O)n(-c4cncc5ccccc45)c(=O)[nH]c3c2)c1 [Example 249]
- EC50 [1]: 110 nM
- IC50 [2]: 269 nM

Compound: COc1cc(-c2ccc3c(=O)n(-c4cncc5ccccc45)c(=O)[nH]c3c2)c(Cl)cc1C [Example 250]
- EC50 [1]: 460 nM
- IC50 [2]: 1210 nM

Compound: COCCOc1ccc(Cl)c(-c2ccc3c(=O)n(-c4cncc5ccccc45)c(=O)[nH]c3c2)c1 [Example 251]
- EC50 [1]: 150 nM
- IC50 [2]: 68.2 nM

Compound: Cc1ccc(Cl)c(-c2ccc3c(=O)n(-c4cncc5ccccc45)c(=O)[nH]c3c2)c1 [Example 252]
- EC50 [1]: 321 nM
- IC50 [2]: 151 nM

Compound: COc1cc(-c2ccc3c(=O)n(-c4cncc5ccccc45)c(=O)[nH]c3c2)c(Cl)cn1 [Example 253]
- EC50 [1]: 1210 nM
- IC50 [2]: 459 nM

Compound: COc1ccc(F)c(-c2ccc3c(=O)n(-c4cncc5ccccc45)c(=O)[nH]c3c2)c1 [Example 254]
- EC50 [1]: 277 nM
- IC50 [2]: 107 nM

Compound: COc1cc(Cl)c(-c2ccc3c(=O)n(-c4cncc5ccccc45)c(=O)[nH]c3c2)cc1OC [Example 255]
- EC50 [1]: 332 nM
- IC50 [2]: 307 nM

Compound: CC(C)COc1ccc(Cl)c(-c2ccc3c(=O)n(-c4cncc5ccccc45)c(=O)[nH]c3c2)c1 [Example 256]
- EC50 [1]: 699 nM
- IC50 [2]: 3990 nM

Compound: COc1cnc(Cl)c(-c2ccc3c(=O)n(-c4cncc5ccccc45)c(=O)[nH]c3c2)c1 [Example 257]
- EC50 [1]: 1150 nM
- IC50 [2]: 500 nM

Compound: Cc1cn(C)nc1-c1cccc(Cl)c1-c1ccc2c(=O)n(-c3cncc4ccccc34)c(=O)[nH]c2c1 [Example 258]
- EC50 [1]: 75.9 nM
- IC50 [2]: 61.3 nM

Compound: Cc1nocc1-c1cccc(Cl)c1-c1ccc2c(=O)n(-c3cncc4ccccc34)c(=O)[nH]c2c1 [Example 259]
- EC50 [1]: 113 nM
- IC50 [2]: 189 nM

Compound: NC(=O)c1cc(-c2cccc(Cl)c2-c2ccc3c(=O)n(-c4cncc5ccccc45)c(=O)[nH]c3c2)ccc1F [Example 260]
- EC50 [1]: 10.3 nM
- IC50 [2]: 15.3 nM

Compound: Cc1n[nH]cc1-c1cccc(Cl)c1-c1ccc2c(=O)n(-c3cncc4ccccc34)c(=O)[nH]c2c1 [Example 261]
- EC50 [1]: 98.6 nM
- IC50 [2]: 79 nM

Compound: Cn1cc(-c2cccc(Cl)c2-c2ccc3c(=O)n(-c4cncc5ccccc45)c(=O)[nH]c3c2)c(C2CC2)n1 [Example 262]
- EC50 [1]: < 4.41 nM
- IC50 [2]: 6.12 nM

Compound: Cn1nc(-c2cccc(Cl)c2-c2ccc3c(=O)n(-c4cncc5ccccc45)c(=O)[nH]c3c2)c2ccccc21 [Example 263]
- EC50 [1]: 38.1 nM
- IC50 [2]: 88.5 nM

Compound: NC(=O)c1cc(-c2cccc(Cl)c2-c2ccc3c(=O)n(-c4cncc5ccccc45)c(=O)[nH]c3c2)ccc1Cl [Example 264]
- EC50 [1]: 30.2 nM
- IC50 [2]: 11.1 nM

Compound: Cn1cc(-c2cccc(Cl)c2-c2ccc3c(=O)n(-c4cncc5ccccc45)c(=O)[nH]c3c2)c(C(F)(F)F)n1 [Example 265]
- EC50 [1]: 17.4 nM
- IC50 [2]: 25.9 nM

Compound: Cc1nn(C2CCN(C(=O)OC(C)(C)C)CC2)cc1-c1cccc(Cl)c1-c1ccc2c(=O)n(-c3cncc4ccccc34)c(=O)[nH]c2c1 [Example 266, tert-butyl 4-[4-[3-chloro-2-[3-(4-isoquinolyl)-2,4-dioxo-1H-quinazolin-7-yl]phenyl]-3-methyl-pyrazol-1-yl]piperidine-1-carboxylate]
- EC50 [1]: 95.1 nM
- IC50 [2]: 36.4 nM

Compound: Cn1cc(-c2cccc(Cl)c2-c2ccc3c(=O)n(-c4cncc5ccccc45)c(=O)[nH]c3c2)c(C#N)n1 [Example 267]
- EC50 [1]: 35.5 nM
- IC50 [2]: 24.1 nM

Compound: Cc1c(-c2cccc(Cl)c2-c2ccc3c(=O)n(-c4cncc5ccccc45)c(=O)[nH]c3c2)cnn1C1CCN(C(=O)OC(C)(C)C)CC1 [Example 268]
- EC50 [1]: 43.1 nM
- IC50 [2]: 131 nM

Compound: CS(=O)(=O)c1cccc(-c2cccc(Cl)c2-c2ccc3c(=O)n(-c4cncc5ccccc45)c(=O)[nH]c3c2)c1 [Example 269]
- EC50 [1]: < 5.29 nM
- IC50 [2]: 10.7 nM

Compound: NS(=O)(=O)c1cccc(-c2cccc(Cl)c2-c2ccc3c(=O)n(-c4cncc5ccccc45)c(=O)[nH]c3c2)c1 [Example 270]
- EC50 [1]: 85.3 nM
- IC50 [2]: 13.9 nM

Compound: CC(C)(C)OC(=O)N1CCn2ncc(-c3cccc(Cl)c3-c3ccc4c(=O)n(-c5cncc6ccccc56)c(=O)[nH]c4c3)c2C1 [Example 271]
- EC50 [1]: 208 nM
- IC50 [2]: 155 nM

Compound: Cn1ncc(-c2cccc(Cl)c2-c2ccc3c(=O)n(-c4cncc5ccccc45)c(=O)[nH]c3c2)c1C(F)(F)F [Example 272]
- EC50 [1]: 39.6 nM
- IC50 [2]: 212 nM

Compound: COc1nn(C)cc1-c1cccc(Cl)c1-c1ccc2c(=O)n(-c3cncc4ccccc34)c(=O)[nH]c2c1 [Example 273]
- EC50 [1]: 6.41 nM
- IC50 [2]: 14.9 nM

Compound: Cc1nn(C(C)(C)C)cc1-c1cccc(Cl)c1-c1ccc2c(=O)n(-c3cncc4ccccc34)c(=O)[nH]c2c1 [Example 274]
- EC50 [1]: 95.7 nM
- IC50 [2]: 83.5 nM

Compound: CCn1cc(-c2cccc(Cl)c2-c2ccc3c(=O)n(-c4cncc5ccccc45)c(=O)[nH]c3c2)c(C)n1 [Example 275]
- EC50 [1]: 17.9 nM
- IC50 [2]: 23.3 nM

Compound: N#Cc1cccc(-c2cccc(Cl)c2-c2ccc3c(=O)n(-c4cncc5ccccc45)c(=O)[nH]c3c2)n1 [Example 276]
- EC50 [1]: 219 nM
- IC50 [2]: 230 nM

Compound: N#Cc1cc(-c2cccc(Cl)c2-c2ccc3c(=O)n(-c4cncc5ccccc45)c(=O)[nH]c3c2)cnc1N1CCOCC1 [Example 277]
- EC50 [1]: 57 nM
- IC50 [2]: 124 nM

Compound: O=c1[nH]c2cc(-c3c(Cl)cccc3-c3cncc(N4CCOCC4)c3)ccc2c(=O)n1-c1cncc2ccccc12 [Example 279]
- EC50 [1]: 7.65 nM
- IC50 [2]: 5.27 nM

Compound: Cn1cc(-c2cccc(Cl)c2-c2cc3[nH]c(=O)n(-c4cncc5ccccc45)c(=O)c3s2)c(C(F)(F)F)n1 [Example 280, 6-(2-chloro-6-(1-methyl-3-(trifluoromethyl)-1H-pyrazol-4-yl)phenyl)-3-(isoquinolin-4-yl)thieno[3,2-d]pyrimidine-2,4(1H,3H)-dione]
- EC50 [1]: 15.9 nM
- IC50 [2]: 5.97 nM

Compound: CCn1cc(-c2cccc(Cl)c2-c2ccc3c(=O)n(-c4cncc5ccccc45)c(=O)[nH]c3c2)c(C(F)(F)F)n1 [Example 281]
- EC50 [1]: 39.5 nM
- IC50 [2]: 71.8 nM

Compound: CC(C)n1cc(-c2cccc(Cl)c2-c2ccc3c(=O)n(-c4cncc5ccccc45)c(=O)[nH]c3c2)c(C(F)(F)F)n1 [Example 282]
- EC50 [1]: 72.4 nM
- IC50 [2]: 148 nM

Compound: COc1ccc(-n2cc(-c3cccc(Cl)c3-c3ccc4c(=O)n(-c5cncc6ccccc56)c(=O)[nH]c4c3)c(C)n2)cc1 [Example 283]
- EC50 [1]: 94.4 nM
- IC50 [2]: 240 nM

Compound: CCS(=O)(=O)c1cccc(-c2cccc(Cl)c2-c2ccc3c(=O)n(-c4cncc5ccccc45)c(=O)[nH]c3c2)c1 [Example 284]
- EC50 [1]: 35.6 nM
- IC50 [2]: 25.8 nM

Compound: Cc1nn(CC(F)(F)F)cc1-c1cccc(Cl)c1-c1ccc2c(=O)n(-c3cncc4ccccc34)c(=O)[nH]c2c1 [Example 285]
- EC50 [1]: 25.5 nM
- IC50 [2]: 19.2 nM

Compound: O=c1[nH]c2cc(-c3cc(F)c(F)cc3Cl)sc2c(=O)n1-c1cncc2ccccc12 [Example 286]
- EC50 [1]: 60.3 nM
- IC50 [2]: 34.8 nM

Compound: Cc1cc(Cl)ncc1-c1cc2[nH]c(=O)n(-c3cncc4ccccc34)c(=O)c2s1 [Example 287]
- EC50 [1]: > 922 nM
- IC50 [2]: 226 nM

Compound: Cc1nc(Cl)ccc1-c1cc2[nH]c(=O)n(-c3cncc4ccccc34)c(=O)c2s1 [Example 288]
- EC50 [1]: 1050 nM
- IC50 [2]: 227 nM

Compound: Cc1ccc(-c2cc3[nH]c(=O)n(-c4cncc5ccccc45)c(=O)c3s2)c(Cl)n1 [Example 289]
- EC50 [1]: 119 nM
- IC50 [2]: 41.7 nM

Compound: Cc1ccnc(Cl)c1-c1cc2[nH]c(=O)n(-c3cncc4ccccc34)c(=O)c2s1 [Example 290]
- EC50 [1]: 484 nM
- IC50 [2]: 159 nM

Compound: O=c1[nH]c2cc(-c3c(Cl)cccc3-c3cn(CC(F)F)nn3)ccc2c(=O)n1-c1cncc2ccccc12 [Example 292]
- EC50 [1]: 169 nM
- IC50 [2]: 120 nM

Compound: O=c1[nH]c2cc(-c3c(Cl)cccc3-c3cn(CCO)nn3)ccc2c(=O)n1-c1cncc2ccccc12 [Example 293]
- EC50 [1]: 748 nM
- IC50 [2]: 67.8 nM

Compound: COc1cccc(-c2ccc3c(=O)n(-c4cncc5ccccc45)c(=O)[nH]c3c2)c1Cl [Example 295]
- EC50 [1]: 13500 nM
- IC50 [2]: 7430 nM

Compound: O=c1[nH]c2cc(-c3cc(O)ccc3Cl)ccc2c(=O)n1-c1cncc2ccccc12 [Example 296]
- EC50 [1]: 1430 nM
- IC50 [2]: 384 nM

Compound: CC(C)Oc1ccc(Cl)c(-c2ccc3c(=O)n(-c4cncc5ccccc45)c(=O)[nH]c3c2)c1 [Example 297]
- EC50 [1]: 223 nM
- IC50 [2]: 680 nM

Compound: N#Cc1cncc(-c2cccc(Cl)c2-c2ccc3c(=O)n(-c4cncc5ccccc45)c(=O)[nH]c3c2)c1 [Example 298]
- EC50 [1]: 10.8 nM
- IC50 [2]: 6.29 nM

Compound: COc1cc(-c2ccc3c(=O)n(-c4cncc5ccccc45)c(=O)[nH]c3c2)c(Cl)cc1F [Example 299]
- EC50 [1]: 36.1 nM
- IC50 [2]: 72.4 nM

Compound: CCOc1ccc(Cl)c(-c2ccc3c(=O)n(-c4cncc5ccccc45)c(=O)[nH]c3c2)c1 [Example 300]
- EC50 [1]: 60.5 nM
- IC50 [2]: 148 nM

Compound: COc1ccc(C)c(-c2ccc3c(=O)n(-c4cncc5ccccc45)c(=O)[nH]c3c2)c1 [Example 301]
- EC50 [1]: 173 nM
- IC50 [2]: 259 nM

Compound: O=c1[nH]c2cc(-c3c(Cl)cccc3OCc3cccnn3)ccc2c(=O)n1-c1cncc2ccccc12 [Example 302]
- EC50 [1]: 108 nM
- IC50 [2]: 30.3 nM

Compound: COCc1ccc(Cl)c(-c2ccc3c(=O)n(-c4cncc5ccccc45)c(=O)[nH]c3c2)c1 [Example 303]
- EC50 [1]: 365 nM
- IC50 [2]: 270 nM

Compound: O=C1COc2ccc(-c3cccc(Cl)c3-c3ccc4c(=O)n(-c5cncc6ccccc56)c(=O)[nH]c4c3)cc2N1 [Example 304]
- EC50 [1]: 20.5 nM
- IC50 [2]: 11.5 nM

Compound: O=c1[nH]c2cc(-c3c(Cl)cccc3-c3cnn4c3COCC4)ccc2c(=O)n1-c1cncc2ccccc12 [Example 305]
- EC50 [1]: 12.8 nM
- IC50 [2]: 8.8 nM

Compound: O=c1[nH]c2cc(-c3c(Cl)cccc3-c3cnn4c3CCCC4)ccc2c(=O)n1-c1cncc2ccccc12 [Example 306]
- EC50 [1]: 5.19 nM
- IC50 [2]: 8.21 nM
